Assay results: patent publication US11427808B2, “Method for serum-free culture of chondrocytes and serum-free culture medium” (Regenesis Science Co., Ltd., priority 2014, dated 2022)

System: primary human chondrocytes
Assay: serum-free culture of human chondrocytes, cell proliferation
Format: cell-based
Details: for proliferation of cultured chondrocytes (number of cells): 4th, 7th, 14th and 21st day
Method: Primary human chondrocytes were isolated from a fresh sample of articular cartilage, and the sample was fractionated. The obtained fractionated sample was then immersed in a 0.1% to 0.3% collagenase solution, and subjected to enzymatic digestion at 37° C. for 4 to 5 hours. The obtained cells were collected by centrifugation for 5 minutes at 1,200 rpm. A mixture obtained by adding 100 ng/mL FGF, 0.5 μM SAG, 400 ng/mL HC, 5 ng/mL IGF, and 5 μg/mL insulin to DMEM medium was used as a culture medium. The cultured cells previously obtained were seeded at a density of 1000 cells/cm^2 and cultured in an environment of 37° C. and 5% CO2. A mixture obtained by adding 100 ng/mL FGF2, 0.5 μM SAG, 400 ng/mL HC, 5 ng/mL IGF and 5 μg/mL insulin to DMEM medium was used as a culture medium for subculture. The cultured cells in Example 1 were seeded at a density of 10000 cells/cm^2 and cultured in an environment of 37° C. and 5% CO2. In order to examine the optimum concentration of SAG added to a culture medium, the concentration of SAG in a serum-free culture medium was changed to 0.05 uM, 0.01 uM or 0.5 uM, and an influence on proliferation of cultured chondrocytes was examined. Specifically, chondrocytes prepared in the same procedure as in Example 1 were seeded at a density of 10000 cells/well, and the number of cells on the 4th, 7th, 14th and 21st day after seeding was measured. Because SAG is a very expensive reagent, it is preferred that SAG be able to be used at as low concentration as possible. […] Specifically, the concentration of SAG in a serum-free culture medium to which ITS had been added was changed to 0.01 uM, 0.05 uM, 0.1 uM or 0.5 uM, and the cultured chondrocytes were cultured, and the number of cells on the 4th, 7th, 14th and 21st day after seeding was measured. In order to further examine the effect of ITS and SAG on an increase in chondrocytes, an increase in chondrocytes was examined in treated sites to which both ITS and SAG were added (ITS+ 0.01 uM SAG, ITS+ 0.1 uM SAG), a treated site to which ITS was added alone (ITS+ SAG−), and a treated site to which ITS and SAG were not added (ITS− SAG−).

## CNC1CCC(N(Cc2cccc(-c3ccncc3)c2)C(=O)c2sc3ccccc3c2Cl)CC1 (stereo not drawn) [SAG]
Comparative Example 1: primary culture as Example 1 but DMEM medium not containing SAG, first to 5th day, FIG. 3
  culture of chondrocytes: chondrocytes could not be effectively cultured in the state without SAG
Comparative Example 2: subculture as Example 2 but DMEM medium not containing SAG, first to 13th day, FIG. 7
  culture of chondrocytes: chondrocytes could not be effectively cultured in the state which does not contain SAG
ITS+ 0.01 uM SAG, ITS+ 0.1 uM SAG, FIG. 14
  effect on proliferation of chondrocytes: an obvious effect can be obtained by combining SAG
SAG 0.01 uM to 0.5 uM added along with ITS, FIG. 13
  proliferation of cultured chondrocytes (number of cells): an increase in chondrocytes was almost equally observed
SAG 0.05 uM, 0.01 uM or 0.5 uM in serum-free culture medium, no ITS, FIG. 12
  proliferation of cultured chondrocytes (number of cells): an obvious difference which had been expected was not observed

## O=C1O[C@H]([C@@H](O)CO)C(O)=C1O [ascorbic acid]
Example 1: 50 μg/mL ascorbic acid added on the 18th day of culture
  effect on culture of chondrocytes in a serum-free culture medium: very effective
Example 2 (subculture): 50 μg/mL ascorbic acid added on the 18th day of culture
  effect on culture of chondrocytes in a serum-free culture medium: very effective

## O=C(O)c1ccccc1C(=O)Nc1ccc(-c2ccccc2)cc1 [kartogenin, 2-[(biphenyl-4-yl)carbamoyl] benzoic acid]
ITS+ 1 uM Kartogenin
  effect on proliferation of chondrocytes: the effect on proliferation of chondrocytes was observed
Kartogenin added in place of SAG
  proliferation of chondrocytes: effective for the proliferation of chondrocytes
